Experimental data taken from patent US11970465B1, “Ethyl {[4-benzoyl-5-(3-fluorophenyl)-4H-1,2,4-triazol-3-yl]thio}acetate as an antimicrobial compound” (priority 2023, dated 2024).

Assays:
[1] = test system: different microbes (Bacillus cereus, Staphylococcus aureus, Pseudomonas aeruginosa, Escherichia coli, Aspergillus flavus, Chrysosporium keratinophilum); assay: agar plate disc-diffusion antimicrobial test; type: cell-based; conditions: disc wetted with 10 μL of 10 mg/mL in DMSO; 37° C., 48 h (72 h for fungi); inhibition zones measured in mm but not given
Procedure: The agar plate disc-diffusion method was applied. Sterilized filter papers (6 mm in diameter) were wetted with 10 μL of a solution of ethyl {[4-benzoyl-5-(3-fluorophenyl)-4H-1,2,4-triazol-3-yl]thio}acetate (III) to be tested, containing 10 mg/mL in DMSO, and the discs were allowed to air dry. The discs were then placed onto the surface of agar plates (nutrient agar for bacteria and Sabouraud's dextrose agar for fungi) seeded with the test organism. Each plate contained 15 mL of the agar medium, previously seeded with 0.2 mL of the broth culture of each organism pregrown for 18 h. The plates were incubated at 37° C. for 48 h, and 72 h for fungi. The inhibition zones was measured in mm. Discs impregnated with DMSO were used as a control, and its inhibition zone was subtracted from the tested compound actual inhibition zone. […] The antibacterial activity was screened against gram positive bacteria namely Bacillus cereus and Staphylococcus aureus and gram-negative bacterial strains namely Pseudomonas aeruginosa and Escherichia coli, while the antifungal activity was screened against Aspergillus flavus and Chrysosporium keratinophilum.

melting point: 154 to 155 °C
SMILES: CCOC(=O)CSc1nnc(-c2cccc(F)c2)n1C(=O)c1ccccc1 [III, ethyl {[4-benzoyl-5-(3-fluorophenyl)-4H-1,2,4-triazol-3-yl]thio}acetate]
antimicrobial activities [1]: excellent antimicrobial activities
